{"source": "ChEMBL document CHEMBL3797052", "about": "(Eur J Med Chem, 2016)", "type_in_all_cases": "functional", "key": {"K562": {"tested_on": "K562", "test": "Antiproliferative activity against human K562 cells assessed as growth inhibition after 48 hrs by sulforhodamine B assay", "details": "K562, 48 h"}, "NCI-H460": {"tested_on": "NCI-H460", "test": "Antiproliferative activity against human NCI-H460 cells assessed as growth inhibition after 48 hrs by sulforhodamine B assay", "details": "NCI-H460, 48 h"}, "[1]": {"test": "Antiproliferative activity against human OVCAR3 cells assessed as growth inhibition after 48 hrs by sulforhodamine B assay", "details": "OVCAR-3, 48 h"}, "[2]": {"test": "Antiproliferative activity against human UACC257 cells assessed as growth inhibition after 48 hrs by sulforhodamine B assay", "details": "UACC-257, 48 h"}, "[3]": {"test": "Antiproliferative activity against human MOLT4 cells assessed as growth inhibition after 48 hrs by sulforhodamine B assay", "details": "MOLT-4, 48 h"}, "NCI-H226": {"tested_on": "NCI-H226", "test": "Antiproliferative activity against human NCI-H226 cells assessed as growth inhibition after 48 hrs by sulforhodamine B assay", "details": "NCI-H226, 48 h"}, "Malme-3M": {"tested_on": "Malme-3M", "test": "Antiproliferative activity against human MALME-3M cells assessed as growth inhibition after 48 hrs by sulforhodamine B assay"}, "[4]": {"test": "Antiproliferative activity against human SNB19 cells assessed as growth inhibition after 48 hrs by sulforhodamine B assay", "details": "SNB-19, 48 h"}, "[5]": {"details": "read-out: LC50 (the source's name)"}}}
{"smiles": "CNC(=O)c1cc(Oc2ccc(NC(=O)Nc3ccc(Cl)c(C(F)(F)F)c3)cc2)ccn1", "note": "[SORAFENIB]", "values": [{"measurement": "GI50", "setting": "K562", "result": 3.16, "unit": "µM"}, {"measurement": "TGI", "setting": "K562", "result": 100, "unit": "µM"}, {"measurement": "CC50", "setting": "K562; [5]", "result": 100, "unit": "µM"}, {"measurement": "GI50", "setting": "NCI-H460", "result": 2.51, "unit": "µM"}, {"measurement": "TGI", "setting": "NCI-H460", "result": 10, "unit": "µM"}, {"measurement": "GI50", "setting": "[1]", "result": 3.16, "unit": "µM"}, {"measurement": "TGI", "setting": "[1]", "result": 12.6, "unit": "µM"}, {"measurement": "GI50", "setting": "[2]", "result": 2, "unit": "µM"}, {"measurement": "TGI", "setting": "[2]", "result": 5.01, "unit": "µM"}, {"measurement": "CC50", "setting": "[2]; [5]", "result": 20, "unit": "µM"}, {"measurement": "GI50", "setting": "[3]", "result": 3.16, "unit": "µM"}, {"measurement": "TGI", "setting": "[3]", "result": 100, "unit": "µM"}, {"measurement": "GI50", "setting": "NCI-H226", "result": 2, "unit": "µM"}, {"measurement": "TGI", "setting": "NCI-H226", "result": 7.94, "unit": "µM"}, {"measurement": "CC50", "setting": "NCI-H226; [5]", "result": 31.6, "unit": "µM"}, {"measurement": "GI50", "setting": "Malme-3M", "result": 2, "unit": "µM"}, {"measurement": "TGI", "setting": "Malme-3M", "result": 6.31, "unit": "µM"}, {"measurement": "CC50", "setting": "Malme-3M; [5]", "result": 63.1, "unit": "µM"}, {"measurement": "GI50", "setting": "[4]", "result": 3.16, "unit": "µM"}, {"measurement": "TGI", "setting": "[4]", "result": 15.8, "unit": "µM"}]}
